Experimental data from patent US9068081B2, “Thiophene azo dyes and laundry care compositions containing the same” (MILLIKEN & COMPANY, priority 2010, dated 2015).

Test: Aqueous partition value of a dye (water/1-octanol partitioning)
Assay type: physicochemical
Conditions: deionized water / 1-octanol 10.0 mL each, absorbance at dye λmax, (Af/Ai)×100%
Method: Dissolve in deionized water to a final volume of 10.0 mL an amount of dye sufficient to provide a solution absorbance value between 0.25 and 1.0, said absorbance being determined at the dye λmax between 400 nm and 750 nm, using a cuvette with 1.0 cm path length. Measure the absorbance of the sample at the dye λmax in a UV/Vis spectrophotometer, then transfer the entire 10.0 mL solution to a 50.0 mL plastic centrifuge tube. Add 10.0 mL of 1-octanol, cap the tube, and mix vigorously for 30 seconds using a Vortex™ mixer. Leave the tube standing undisturbed until the layers cleanly phase separate.
Using a transfer pipette, withdraw an aliquot of the aqueous (bottom) layer and transfer it to a cuvette with 1.0 cm path length for spectrophotometric analysis. Analyze the solution as before, and quantify the absorbance loss at λmax as “% of Dye Remaining in Aqueous Layer” as detailed below: % of Dye Remaining in Aqueous Layer=Aqueous Partition Value (APV)=(Af/Ai)×100% wherein Ai is the initial solution absorbance at λmax and Af is the final solution absorbance at λmax. II. Method for Determining Hueing Efficiency for Detergents • a.) Two 25 cm×25 cm fabric swatches of 16 oz white cotton interlock knit fabric (270 g/square meter, brightened with Uvitex BNB fluorescent whitening agent, from Test Fabrics. P.O. Box 26, Weston, Pa., 18643) are obtained. • b.) Prepare two one liter aliquots of tap water containing 1.55 g of AATCC standard heavy duty liquid (HDL) test detergent. • c.) Add a sufficient amount the dye to be tested to one of the aliquots from Step b.) above to produce an aqueous solution absorbance of 1 AU. • d.) Wash one swatch from a.) above in one of the aliquots of water containing 1.55 g of AATCC standard heavy duty liquid (HDL) test detergent and wash the other swatch in the other aliquot. Such washing step should be conducted for 30 minutes at room temperature with agitation. After such washing step separately rinse the swatches in tap water and air dry the swatches in the dark. • e.) After rinsing and drying each swatch, the hueing efficiency, DE*eff, of the dye is assessed by determining the L*, a*, and b* value measurements of each swatch using a Hunter LabScan XE reflectance spectrophotometer with D65 illumination, 10° observer and UV filter excluded. The hueing efficiency of the dye is then calculated using the following equation: DE*eff=((L*c−Ls)^2+(a*c−a*s)^2+(b*c−b*s)^2)^1/2 • wherein the subscripts c and s respectively refer to the L*, a*, and b* values measured for the control, i.e., the fabric sample washed in detergent with no dye, and the fabric sample washed in detergent containing the dye to be screened. III. Method for Determining Wash Removability • a.) Prepare two separate 150 ml aliquots of HDL detergent solution, according to AATCC Test Method 61-2003, Test 2A and containing 1.55 g/liter of the AATCC HDL formula in distilled water. • b.) A 15 cm×5 cm sample of each fabric swatch from the Method for Determining of Hueing Efficiency For Detergents described above is washed in a Launderometer for 45 minutes at 49° C. in 150 ml of a the HDL detergent solution prepared according to Step 11. a.) above. • c.) The samples are rinsed with separate aliquots of rinse water and air dried in the dark, and then L*, a*, and b* value measurements of each swatch are taken using a Hunter LabScan XE reflectance spectrophotometer with D65 illumination, 10° observer and UV filter excluded. The amount of residual coloration is assessed by measuring the DE*res, calculated using the following equation: DE*res=((L*c−L*s)^2+(a*c−a*s)^2+(b*c−b*s)^2)^1/2 • wherein the subscripts c and s respectively refer to the L*, a*, and b* values measured for the control, i.e., the fabric sample initially washed in detergent with no dye, and the fabric sample initially washed in detergent containing the dye to be screened. The wash removal value for the dye is then calculated according to the formula: % removal=100×(1−DE*res/DE*eff) C. Test Results […]

| SMILES | % Dye in Water Layer (Aqueous Partition Value) [%] |
| --- | --- |
| CCN(CCOCCOCCOCCOCC[N+](CC)(CC)CC)c1ccc(/N=N/c2sc(C#N)c(C)c2C#N)c(C)c1 [Example 12] | 15 |
| COc1cc(/N=N/c2sc(C#N)c(C)c2C#N)c(C)cc1N(CCOCCOCC[N+](CCO)(CCO)CCO)CCOCC[N+](CCO)(CCO)CCO [Example 22] | 56 |
| CC[N+](CC)(CC)CCOCCOCCN(CCOCC[N+](CC)(CC)CC)c1cc(OC)c(/N=N/c2sc(C#N)c(C)c2C#N)cc1OC [Example 19] | 78 |
| CCN(CC[N+](CC)(CC)CC)c1ccc(/N=N/c2sc(C#N)c(C)c2C#N)c(C)c1 [Example 7] | 15 |
| CC[N+](CC)(CC)CCOCCOCCN(CCOCC[N+](CC)(CC)CC)c1ccc(/N=N/c2sc(C#N)c(C)c2C#N)c(C)c1 [Example 35] | 66 |
| CC[N+](CC)(CC)CCN(CC[N+](CC)(CC)CC)c1ccc(/N=N/c2sc(C#N)c(C)c2C#N)c(C)c1 [Example 36] | 94 |
| CC[N+](CC)(CC)CCOCCOCCN(CCOCC[N+](CC)(CC)CC)c1cc(C)c(/N=N/c2sc(C#N)c(C)c2C#N)cc1OC [Example 18] | 49 |

More lines, now with the values ahead:

| % Dye in Water Layer (Aqueous Partition Value) [%] | SMILES |
| --- | --- |
| 75 | COc1cc(/N=N/c2sc(C#N)c(C)c2C#N)c(C)cc1N(CCOCCOCC[N+](C)(C)CCO)CCOCC[N+](C)(C)CCO [Example 21] |
| 97 | COc1cc(/N=N/c2sc(C#N)c(C)c2C#N)c(C)cc1N(CCn1cc[n+](C)c1)CCn1cc[n+](C)c1 [Example 1] |
| 20 | CCN(CCOCCOCCOCCOCCn1cc[n+](C)c1)c1ccc(/N=N/c2sc(C#N)c(C)c2C#N)c(C)c1 [Example 13] |
| 83 | Cc1cc(N(CCn2cc[n+](C)c2)CCn2cc[n+](C)c2)ccc1/N=N/c1sc(C#N)c(C)c1C#N [Example 2] |
